Data as given in patent US20240148671A1, “METHODS FOR IMPROVING POULTRY HEALTH” (CORNELL UNIVERSITY, priority 2021, published 2024).
Marks after values point to notes of the source that are not given here.

Tests used:
[1] = system: duodenal tissue (villi, crypts, goblet cells); assay: Morphometric examination of duodenal tissue; type: in vivo, Gallus gallus
Experimental: The pure resveratrol and pterostilbene were individually diluted in 18 MΩ H2O. The intra-amniotic administration followed the methodology previously described. On the 17th day of embryonic development, the eggs with viable embryos (n=60) were randomly allocated into 6 groups (n=10) with a similar weight frequency distribution. For the intra-amniotic treatment, 1 mL of solution per egg was injected into the amniotic fluid (via candling) with the aid of a 21-gauge needle. After the procedure, the injection sites were sealed with cellophane tape, and the eggs were distributed into six groups: (1) no injection; (2) 18 MΩ H2O; (3) 5% inulin; (4) 5% resveratrol; (5) 5% pterostilbene; and (6) synergistic: 4.75% resveratrol and 0.25% pterostilbene. […] The eggs were equally distributed in each incubator location to reduce possible allocation bias. Upon hatching (21 days), the hatchlings were euthanized by CO2 exposure, and the blood, liver, heart, pectoral muscle, small intestine and cecum were obtained.
Villus epithelium analysis was conducted as previously published. The duodenal samples were soaked in buffered formaldehyde (4% (v/v)), dehydrated, cleared and embedded in paraffin. Numerous sections were cut with a thickness of 5 μm and put on slides. The sections were deparaffinized in xylene, after which they were rehydrated in a series of graded alcohol. Finally, the slides were stained with Alcian Blue-periodic acid-Schiff and investigated under a light microscopy. The variables were assessed (light microscope, EPIX XCAP software, standard version, Olympus, Waltham, MA, USA) for the following: villus length, villus diameter, depth of crypts, goblet cell diameter, crypt goblet cell number and villus goblet cells type number (acidic, neutral or mixed). Four segments for each biological sample and five biological samples per treatment group were examined. The goblet cells were enumerated at 10 villi/sample, and the means were calculated for statistical analysis.

IL-1β = assay: Gene expression (RT-PCR), IL-1β; type: in vivo, Gallus gallus; conditions: at hatch; b175, b210: compared with the 5% inulin control group; b192: comparator not stated; p<0.05
Experimental: The pure resveratrol and pterostilbene were individually diluted in 18 MΩ H2O. The intra-amniotic administration followed the methodology previously described. On the 17th day of embryonic development, the eggs with viable embryos (n=60) were randomly allocated into 6 groups (n=10) with a similar weight frequency distribution. For the intra-amniotic treatment, 1 mL of solution per egg was injected into the amniotic fluid (via candling) with the aid of a 21-gauge needle. […]
The RNA was isolated as described previously (RNeasy Mini Kit, Qiagen Inc., Valencia, CA, USA), and 30 mg of the duodenal tissue or liver tissue (n =8) was used to extract the total RNA. […] Finally, the RNA was eluted in 50 μL of RNase-free water and quantified by absorbance at 260 and 280 nm.
RT-PCR was conducted as described. […] The cDNA content was assessed by absorbance at 260 and 280 nm, with an extinction coefficient of 33 (single-stranded DNA). Genomic DNA contamination was evaluated via a real-time RT-PCR assay for the reference gene samples [17,18,30]. […]
The procedures were performed as previously published. […] The optimal MgCl2 concentration achieved, for each reaction, an amplification plot (lowest cycle product, Cp), the uppermost fluorescence intensity and the steepest amplification slope. […]

[2] = duodenum, intra-amniotic 1 mL/egg on day 17, at hatch, mean ± SEM, n=5
[3] = small intestine, intra-amniotic 1 mL/egg on day 17, at hatch, mean ± SEM, n=5

Oc1ccc(C=Cc2cc(O)cc(O)c2)cc1 [5% Resveratrol, Resveratrol]
Depth of Crypts (μm) [1, 2]: 63.73 ± 1.20^a μm
Mucus Layer Width (μm) [1, 2]: 4.80 ± 0.13^d μm
Villus Diameter (μm) [1, 2]: 54.47 ± 0.70^b μm
Villus Length (μm) [1, 2]: 294.92 ± 3.48^c μm
Crypt Goblet Cell Number [1, 3]: 10.91 ± 0.21 ^b
Goblet Cell Diameter (μM) [1, 3]: 7.94 ± 0.06 ^b μM
Villus Goblet Cell Type Number, Acidic [1, 3]: 10.97 ± 0.23 ^a
Villus Goblet Cell Type Number, Mixed [1, 3]: 0.17 ± 0.03 ^c
Villus Goblet Cell Type Number, Neutral [1, 3]: 0.00 ± 0.00 ^b
Duodenal villus diameter, comparison with controls ([1]; versus the controls, p<0.05): significant increase
Duodenal villus length, comparison with controls ([1]; versus the controls, p<0.05): significant increase
IL-1β gene expression (IL-1β): downregulated
